Results: article PMC10111413 (ACS Infectious Diseases, 2023)
Values after ≈ are worked out from the molar mass of the structure shown. Where a SMILES comes first, the peptide text is derived from it. Bridges are numbered along the chain shown (N, C = ends). [ ]: non-standard residue; d: D form. The star is where a group is joined. ξ: configuration not given here. Hexanoyl(4ξ-Me) = CCC(C)CCC(=O)*; dOrn = NCCC[C@@H](N)C(=O)O; Orn = NCCC[C@H](N)C(=O)O

Key:
Type in all cases: cell-based
S. aureus USA300 = conditions: USA300, 18 h
Protocol: (§1) The antibacterial activities of relacidine A (3a) and B (4a), along with diastereomers 3b and 4b–d and relacidamide (5), were assessed using a standard microbroth dilution assay to establish minimum inhibitory concentration (MIC) values against a panel of Gram-negative bacteria (Table 1). The MIC values measured for synthetic relacidine A (3a) and B (4a) agree well with those previously published.[9] […] Relacidine A (3a) and B (4a), as well as relacidamide (5), were further tested against a panel of colistin-resistant A. baumannii clinical isolates, which confirmed their ability to prevent the growth of colistin-resistant isolates (Supplemental Table S2). […] Also of interest was the finding that while relacidine B (4a) induced <1% hemolysis, a substitution of either the L-Ala or L-Ser to D-Ala or D-Ser increased hemolytic activity to 8–12%. […] The greater hydrolytic stability of relacidine B would appear to be attributable to the increased steric bulk of the Ala side chain next to the ester linkage (compared with the methylene of Gly in relacidine A), which may hinder the nucleophilic attack of water at the ester carbonyl.
(§2) Colistin sulfate was purchased from Activate Scientific. Kanamycin monosulfate was purchased from MP Biomedicals. E. coli ATCC 25922, S. aureus USA300 (ATCC BAA1717), and K. pneumoniae ATCC 13883 belong to the American Type Culture Collection (ATCC). P. aeruginosa PAO1 was kindly provided by L.H.C. Quarles Van Ufford of Utrecht University, Utrecht, The Netherlands. E. coli ATCC 25922 MCR-1 was transfected in-house using the pGDP2-MCR1 plasmid kindly provided by Yong-Xin Li of The University of Hong Kong, Hong Kong, China. Sheep blood agar plates (ref. PB5039A) were purchased from Thermo Scientific. Tryptic soy broth (ref. 02-200-500) was purchased from Scharlab. Mueller-Hinton broth (ref. X927.1) was purchased from Carl Roth. Polypropylene 96-wells plates (ref. 3879) were purchased from Corning.
(§3) MICs were determined according to Clinical and Standards Laboratory Institute (CLSI) guidelines. Blood agar plates were inoculated with glycerol stocks of E. coli ATCC 25922, K. pneumoniae ATCC 13883, P. aeruginosa PAO1, and S. aureus USA300. The inoculated agar plates were then incubated for 16 h at 37 °C. Individually grown colonies were subsequently used to inoculate 5 mL aliquots of tryptic soy broth (TSB) that were then incubated at 37 °C with shaking at 220 rpm. E. coli 25922 MCR-1 glycerol stock was used to inoculate 5 mL of TSB supplemented with kanamycin that was then incubated for 16 h at 37 °C with shaking at 220 rpm. The next day, the culture was diluted 100-fold in TSB supplemented with kanamycin and incubated at 37 °C with shaking at 220 rpm. In parallel, the lipopeptide antibiotic DMSO stocks to be assessed were serially diluted with Mueller Hinton broth (MHB) in polypropylene 96-well plates (50 μL in each well). Colistin sulfate stocks were dissolved in water before being diluted with MHB. Aliquots of the inoculated TSB were incubated until an OD600 of around 0.5 was reached. The bacterial suspensions were then diluted with MHB (2 × 10^5 cfu mL^–1) and added to the microplates containing the test compounds (50 μL to each well). The well plates were sealed with an adhesive membrane, and after 18 h of incubation at 37 °C with shaking at 600 rpm, the wells were visually inspected for bacterial growth. MIC values reported are based on three technical replicates and defined as the lowest concentration of the compound that prevented visible growth of bacteria.

E. coli ATCC 25922 = conditions: ATCC 25922, 18 h
Protocol: as §1, §2, §3

P. aeruginosa PAO1 = conditions: PAO1, 18 h
Protocol: as §1, §2, §3

K. pneumoniae ATCC 13883 = conditions: ATCC 13883, 18 h
Protocol: as §1, §2, §3

E. coli ATCC 25922 mcr-1 = conditions: CLSI microbroth dilution, Mueller Hinton broth, 18 h at 37 °C, visual read-out, three technical replicates; mcr-1 colistin resistance plasmid
Protocol: as §1, §2, §3

A. baumannii ATCC 17978 = conditions: ATCC 17978, 18 h
Protocol: (§4) VIII. Antimicrobial testing
(§5) Table S2. Minimum inhibitory concentrations (MICs) determined against panel of previously characterized colistin-resistant A. baumannii clinical isolates5
(§6) Strain Relacidine A (3a) Relacidine B (4a) Relacidamide (5) Colistin […]
(§7) aMIC values given in µg/ml.
(§8) All minimum inhibitory concentrations were determined according to Clinical and Standards Laboratory Institute (CLSI) guidelines. Blood agar plates were inoculated from glycerol stocks of the different A. baumannii strains used and then incubated for 16 h at 37 °C . Individually grown colonies were subsequently used to inoculate 5 mL aliquots of TSB that were then incubated at 37 °C. In parallel, the lipopeptide antibiotics DMSO stocks to be assessed were serially diluted with cation-adjusted MHB in polypropylene 96-well plates (50 µL in each well). Colistin sulfate stocks were dissolved in water before being diluted with cation-adjusted MHB. The A. baumannii inoculated TSB aliquots were incubated until an OD600 of around 0.5 was reached. The bacterial suspensions were then diluted with cation-adjusted MHB (2 x 10^5 CFU mL-1) and added to the microplates containing the test compounds (50 µL to each well). The well-plates were sealed with an adhesive membrane and after 18 h of incubation at 37 °C visually inspected for bacterial growth. MIC values reported are based on three technical replicates and defined as the lowest concentration of the compound that prevented visible

A. baumannii BV95 = conditions: BV95, 18 h
Protocol: as §4, §5, §6, §7, §8

A. baumannii BV173 = conditions: BV173, 18 h
Protocol: as §4, §5, §6, §7, §8

A. baumannii BV172 = conditions: BV172, 18 h
Protocol: as §4, §5, §6, §7, §8

A. baumannii NCTC 13420 = conditions: NCTC 13420, 18 h
Protocol: as §4, §5, §6, §7, §8

A. baumannii NCTC 13304 = conditions: NCTC 13304, 18 h
Protocol: as §4, §5, §6, §7, §8

A. baumannii LAC-4 = conditions: LAC-4, 18 h
Protocol: as §4, §5, §6, §7, §8

A. baumannii HUMC1 = conditions: HUMC1, 18 h
Protocol: as §4, §5, §6, §7, §8

A. baumannii BV94 = conditions: BV94, 18 h
Protocol: as §4, §5, §6, §7, §8

Row | SMILES | MIC S. aureus USA300 (S. aureus USA300) [µg/mL] | MIC E. coli ATCC 25922 (E. coli ATCC 25922) [µg/mL] | MIC P. aeruginosa PAO1 (P. aeruginosa PAO1) [µg/mL] | MIC K. pneumoniae ATCC 13883 (K. pneumoniae ATCC 13883) [µg/mL] | MIC E. coli ATCC 25922 mcr-1 (E. coli ATCC 25922 mcr-1) [µg/mL] | MIC A. baumannii ATCC 17978 (A. baumannii ATCC 17978) [µg/mL] | MIC A. baumannii BV95 (A. baumannii BV95) [µg/mL] | MIC A. baumannii BV173 (A. baumannii BV173) [µg/mL] | MIC A. baumannii BV172 (A. baumannii BV172) [µg/mL] | MIC A. baumannii NCTC 13420 (A. baumannii NCTC 13420) [µg/mL] | MIC A. baumannii NCTC 13304 (A. baumannii NCTC 13304) [µg/mL] | MIC A. baumannii LAC-4 (A. baumannii LAC-4) [µg/mL] | MIC A. baumannii HUMC1 (A. baumannii HUMC1) [µg/mL] | MIC A. baumannii BV94 (A. baumannii BV94) [µg/mL]
1 | CCC(C)CCC(=O)N[C@H](CO)C(=O)N[C@H](Cc1ccc(O)cc1)C(=O)N[C@H](Cc1c[nH]c2ccccc12)C(=O)N[C@H](CCCN)C(=O)N[C@@H](CCCN)C(=O)NCC(=O)N[C@H](CCCN)C(=O)N[C@@H](Cc1c[nH]c2ccccc12)C(=O)N[C@@H]1C(=O)N[C@@H]([C@@H](C)CC)C(=O)NCC(=O)N[C@H](CO)C(=O)N[C@H](C)C(=O)O[C@@H]1C (stereo partly drawn) [4d, D-Ala13, D-Ser12-Relacdine B] ({Hexanoyl(4ξ-Me)}-[dS][dY][dW][dOrn][Orn]G[dOrn]WTIG[dS][dA]; ester 9-C) | >32 | 2 (≈ 1.28 µM) | 8 (≈ 5.12 µM) | 2 to 4 | 2 to 4 | – | – | – | – | – | – | – | – | –
2 | CCC(C)CCC(=O)N[C@H](CO)C(=O)N[C@H](Cc1ccc(O)cc1)C(=O)N[C@H](Cc1c[nH]c2ccccc12)C(=O)N[C@H](CCCN)C(=O)N[C@@H](CCCN)C(=O)NCC(=O)N[C@H](CCCN)C(=O)N[C@@H](Cc1c[nH]c2ccccc12)C(=O)N[C@@H]1C(=O)N[C@@H]([C@@H](C)CC)C(=O)NCC(=O)N[C@H](CO)C(=O)N[C@@H](C)C(=O)O[C@@H]1C (stereo partly drawn) [4c, L-Ala13, D-Ser12-Relacdine B] ({Hexanoyl(4ξ-Me)}-[dS][dY][dW][dOrn][Orn]G[dOrn]WTIG[dS]A; ester 9-C) | >32 | 1 to 2 | 4 (≈ 2.56 µM) | 2 to 4 | 1 to 2 | – | – | – | – | – | – | – | – | –
3 | CCC(C)CCC(=O)N[C@H](CO)C(=O)N[C@H](Cc1ccc(O)cc1)C(=O)N[C@H](Cc1c[nH]c2ccccc12)C(=O)N[C@H](CCCN)C(=O)N[C@@H](CCCN)C(=O)NCC(=O)N[C@H](CCCN)C(=O)N[C@@H](Cc1c[nH]c2ccccc12)C(=O)N[C@@H]1C(=O)N[C@@H]([C@@H](C)CC)C(=O)NCC(=O)N[C@@H](CO)C(=O)N[C@H](C)C(=O)O[C@@H]1C (stereo partly drawn) [4b, D-Ala13, L-Ser12-Relacidine B] ({Hexanoyl(4ξ-Me)}-[dS][dY][dW][dOrn][Orn]G[dOrn]WTIGS[dA]; ester 9-C) | >32 | 2 (≈ 1.28 µM) | 4 (≈ 2.56 µM) | 4 (≈ 2.56 µM) | 2 to 4 | – | – | – | – | – | – | – | – | –
4 | CCC(C)CCC(=O)N[C@H](CO)C(=O)N[C@H](Cc1ccc(O)cc1)C(=O)N[C@H](Cc1c[nH]c2ccccc12)C(=O)N[C@H](CCCN)C(=O)N[C@@H](CCCN)C(=O)NCC(=O)N[C@H](CCCN)C(=O)N[C@@H](Cc1c[nH]c2ccccc12)C(=O)N[C@@H]1C(=O)N[C@@H]([C@@H](C)CC)C(=O)NCC(=O)N[C@@H](CO)C(=O)N[C@@H](C)C(=O)O[C@@H]1C (stereo partly drawn) [4a, Relacidine B] ({Hexanoyl(4ξ-Me)}-[dS][dY][dW][dOrn][Orn]G[dOrn]WTIGSA; ester 9-C) | >32 | 1 (≈ 0.639 µM) | 4 (≈ 2.56 µM) | 4 (≈ 2.56 µM) | 2 (≈ 1.28 µM) | 4 (≈ 2.56 µM) | 8 (≈ 5.12 µM) | 16 (≈ 10.2 µM) | 16 (≈ 10.2 µM) | 16 (≈ 10.2 µM) | 4 (≈ 2.56 µM) | 8 (≈ 5.12 µM) | 8 (≈ 5.12 µM) | 16 (≈ 10.2 µM)
5 | CCC(C)CCC(=O)N[C@H](CO)C(=O)N[C@H](Cc1ccc(O)cc1)C(=O)N[C@H](Cc1c[nH]c2ccccc12)C(=O)N[C@H](CCCN)C(=O)N[C@@H](CCCN)C(=O)NCC(=O)N[C@H](CCCN)C(=O)N[C@@H](Cc1c[nH]c2ccccc12)C(=O)N[C@@H]1C(=O)N[C@@H]([C@@H](C)CC)C(=O)NCC(=O)N[C@H](CO)C(=O)NCC(=O)O[C@@H]1C (stereo partly drawn) [3b, D-Ser12-Relacidine A] ({Hexanoyl(4ξ-Me)}-[dS][dY][dW][dOrn][Orn]G[dOrn]WTIG[dS]G; ester 9-C) | >32 | 2 to 4 | 2 (≈ 1.29 µM) | 4 (≈ 2.58 µM) | 4 (≈ 2.58 µM) | – | – | – | – | – | – | – | – | –
6 | CCC(C)CCC(=O)N[C@H](CO)C(=O)N[C@H](Cc1ccc(O)cc1)C(=O)N[C@H](Cc1c[nH]c2ccccc12)C(=O)N[C@H](CCCN)C(=O)N[C@@H](CCCN)C(=O)NCC(=O)N[C@H](CCCN)C(=O)N[C@@H](Cc1c[nH]c2ccccc12)C(=O)N[C@@H]1C(=O)N[C@@H]([C@@H](C)CC)C(=O)NCC(=O)N[C@@H](CO)C(=O)NCC(=O)O[C@@H]1C (stereo partly drawn) [3a, Relacidine A] ({Hexanoyl(4ξ-Me)}-[dS][dY][dW][dOrn][Orn]G[dOrn]WTIGSG; ester 9-C) | >32 | 2 (≈ 1.29 µM) | 4 (≈ 2.58 µM) | 4 (≈ 2.58 µM) | 2 to 4 | 8 (≈ 5.16 µM) | 8 (≈ 5.16 µM) | 8 (≈ 5.16 µM) | 16 (≈ 10.3 µM) | 8 (≈ 5.16 µM) | 4 (≈ 2.58 µM) | 4 (≈ 2.58 µM) | 16 (≈ 10.3 µM) | 8 (≈ 5.16 µM)
